Patent US20260224547A1, “COMPOSITIONS COMPRISING ANATABINE AND USES THEREOF” (Philip Morris Products S.A., priority 2021, published 2026)
Counter-ions that a name gives are not always drawn.

Assays:
NRF2 = NRF2 luciferase assay (NRF2/ARE reporter cell line); type: cell-based, human; details: for effect on the NRF2 pathway: FIG. 4, tobacco alkaloids; for maximum log 2-fold change of NRF2 activation: at 12.5 μM for sulforaphane, 125 μM and 250 μM for DMF, 1000 μM for anatabine
From the text: A HEK-293 NRF2/ARE luciferase reporter cell line was acquired from Signosis (USA). According to Signosis, this NRF2 luciferase reporter stable cell line had been stably transfected with pTA-ARE-luciferase reporter vector, which contains 4 repeats of antioxidant response binding sites, a minimal promoter upstream of the firefly luciferase coding region, along with a hygromycin expression vector. Following selection, the hygromycin resistant clones were subsequently screened for TBHQ-induced luciferase activity. The clone with the highest fold induction was selected and expanded to produce this stable cell line.
4, 8 or 24 hours after stimulation of the NRF2 reporter cells luminescence was measured using a FLUOstar Omega plate reader.

NRF2 reporter cells = assay: Cell viability measured with ATP assay alongside NRF2 translocation (FIG. 4 to 7); details: for cell viability, percentage of the vehicle control: human
From the text: FIGS. 5A to 5C: bar and line graphs showing NRF2 translocation presented as log 2 fold change compared to vehicle control (bars) and cell viability measured with ATP assay and presented as a percentage of the vehicle control (line) for anatabine (FIG. 5A), dimethyl fumarate (AlfaAesar) (FIG. 5B), and nornicotine (FIG. 5C).
FIGS. 6A to 6C: bar graphs showing NRF2 translocation presented as log 2 fold change compared to vehicle control (bars) and cell viability measured with ATP assay and presented as a percentage of the vehicle control (line) for anatabine (FIG. 6A), dimethyl fumarate (Sigma) (FIG. 6B), and sulforaphane (FIG. 6C).
FIGS. 7A and […]: bar graphs showing NRF2 translocation presented as log 2 fold change compared to vehicle control (bars) and cell viability measured with ATP assay and presented as a percentage of the vehicle control (line) for cotinine (FIG. 7A) and nicotine (FIG. 7B).

Row | Compound | effect on the NRF2 pathway (NRF2) | cell viability, percentage of the vehicle control (NRF2 reporter cells; 500 μM) | maximum log 2-fold change of NRF2 activation (NRF2) | cell viability at higher concentrations (NRF2 reporter cells) | further results
1 | c1cncc([C@@H]2CCCN2)c1 [nornicotine] | do not substantially affect |  |  |  | 
2 | CN1C(=O)CC[C@H]1c1cccnc1 [cotinine] | do not substantially affect | below 85% |  |  | cell viability, percentage of the vehicle control (NRF2 reporter cells; 1000 μM): below 85%
3 | COC(=O)/C=C/C(=O)OC [DMF, dimethyl fumarate] |  | ~0% | 6 to 7 | significantly reduced | NRF2 activation, log 2-fold change (NRF2; 125 μM, DMF from AlfaAesar): 6.74; NRF2 activation, log 2-fold change (NRF2; 125 μM, DMF from Sigma): 6.90; NRF2 activation, log 2-fold change (NRF2; 250 μM, DMF from AlfaAesar): 6.81; NRF2 activation, log 2-fold change (NRF2; 250 μM, DMF from Sigma): 6.67
4 | c1cncc([C@@H]2CCCCN2)c1 [anabasine] | do not substantially affect |  |  |  | 
5 | C[S+]([O-])CCCCN=C=S (centres unmarked) [sulforaphane] |  |  | approximately 5 | significantly reduced | NRF2 activation, log 2-fold change (NRF2; 0.78 to 50 μM (P<0.01)): increase; cell viability, percentage of the vehicle control (NRF2 reporter cells; 25 μM): around 50%
6 | CN1CCCC1c1cccnc1 (centres unmarked) [nicotine] | do not substantially affect |  |  |  | 
